This is an account of results in US6506772B1, “Substituted [1,2,4]triazolo[1,5a]pyridine derivatives with activity as adenosine receptor ligands” (Hoffmann-La Roche Inc., priority 2000, dated 2003).

For assay [1], the target named is T1, human adenosine A2A receptor (Homo sapiens, UniProt P29274).
T1 construct: expressed in transfected cells; host or cells: CHO cells, Semliki Forest virus expression system; membrane preparation
Briefly: Human adenosine A2A receptor [3H]-SCH-58261 binding assay. The conditions noted are these: for Ki: affinity to human adenosine A2A receptor, read-out: Ki HA2A; for selectivity (A1/A2a): calculated ratio of the affinity to the HA1 receptor to the HA2a receptor.

The next assay concerns the target T2, HA1 adenosine receptor (Homo sapiens, UniProt P30542).
T2 sequence (P30542 1-326): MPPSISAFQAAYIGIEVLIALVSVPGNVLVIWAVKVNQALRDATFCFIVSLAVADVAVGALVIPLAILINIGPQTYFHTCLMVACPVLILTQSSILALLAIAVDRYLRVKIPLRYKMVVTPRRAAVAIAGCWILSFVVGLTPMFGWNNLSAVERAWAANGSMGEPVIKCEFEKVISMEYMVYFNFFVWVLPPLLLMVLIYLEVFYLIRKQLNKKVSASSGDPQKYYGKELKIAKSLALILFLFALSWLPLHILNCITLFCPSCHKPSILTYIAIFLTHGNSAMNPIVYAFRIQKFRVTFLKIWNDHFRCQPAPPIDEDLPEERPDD
The experiment in a line: Human adenosine A1 receptor affinity (Ki hA1). The conditions noted are these: affinity to human adenosine A1 receptor. The class given is binding.

T1 sequence (P29274 whole entry): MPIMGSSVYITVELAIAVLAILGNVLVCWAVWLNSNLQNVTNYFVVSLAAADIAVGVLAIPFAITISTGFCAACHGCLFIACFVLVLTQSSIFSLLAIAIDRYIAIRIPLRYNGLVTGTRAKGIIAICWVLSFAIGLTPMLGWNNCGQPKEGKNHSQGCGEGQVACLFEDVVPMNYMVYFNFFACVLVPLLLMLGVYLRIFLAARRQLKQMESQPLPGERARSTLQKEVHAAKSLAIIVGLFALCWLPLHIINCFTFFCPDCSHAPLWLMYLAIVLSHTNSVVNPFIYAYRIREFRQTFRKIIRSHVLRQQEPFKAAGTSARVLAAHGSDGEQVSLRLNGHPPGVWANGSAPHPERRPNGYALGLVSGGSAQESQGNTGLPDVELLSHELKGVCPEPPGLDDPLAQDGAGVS

For the molecule `COc1cc(CNC(=O)c2cc(N)n3nc(-c4cc(Br)co4)nc3c2)cc(OC)c1OC` [Example 177, 5-Amino-2-(4-bromo-furan-2-yl)-[1,2,4]triazolo[1,5-a]pyridine-7-carboxylic acid 3,4,5-trimethoxy-benzylamide], in assay [1], the Ki was determined as 0.197 µM and the “selectivity (A1/A2a)” value is 1.3. Also, the affinity at HA1 adenosine receptor corresponds to a Ki of 0.266 µM.

As to `CCCCNC(=O)c1cc(N)n2nc(-c3cccn3C)nc2c1` [Example 178, 5-Amino-2-(1-methyl-1H-pyrrol-2-yl)-[1,2,4]triazolo[1,5-a]pyridine-7-carboxylic acid butylamide], the inhibitory constant (Ki) in assay [1] stood at 0.0652 µM; on HA1 adenosine receptor, 0.45 µM. Besides, the “selectivity (A1/A2a)” value in assay [1] is 6.9.

As to `Cn1cccc1-c1nc2cc(C(=O)NC3CCCCC3)cc(N)n2n1` [Example 179, 5-Amino-2-(1-methyl-1H-pyrrol-2-yl)-[1,2,4]triazolo[1,5-a]pyridine-7-carboxylic acid cyclohexylamide], in assay [1], the Ki stood at 0.144 µM and the “selectivity (A1/A2a)” value is 5.4. On HA1 adenosine receptor, this molecule registered a Ki of 0.779 µM.

On to `Cn1cccc1-c1nc2cc(C(=O)NCc3ccccc3)cc(N)n2n1` [Example 180, 5-Amino-2-(1-methyl-1H-pyrrol-2-yl)-[1,2,4]triazolo[1,5-a]pyridine-7-carboxylic acid benzylamide], for which, in assay [1], the Ki was 0.112 µM and the “selectivity (A1/A2a)” value was 2.7. On HA1 adenosine receptor, the affinity, expressed as Ki, was 0.307 µM.

For the molecule `Cn1cccc1-c1nc2cc(C(=O)NCc3ccccc3Cl)cc(N)n2n1` [Example 181, 5-Amino-2-(1-methyl-1H-pyrrol-2-yl)-[1,2,4]triazolo[1,5-a]pyridine-7-carboxylic acid 2-chloro-benzylamide], the Ki in assay [1] turned out to be 0.0543 µM; on HA1 adenosine receptor, 0.256 µM. For the same molecule, the “selectivity (A1/A2a)” value in assay [1] is 4.7.

Consider `Cn1cccc1-c1nc2cc(C(=O)NCc3ccccc3Br)cc(N)n2n1` [Example 182, 5-Amino-2-(1-methyl-1H-pyrrol-2-yl)-[1,2,4]triazolo[1,5-a]pyridine-7-carboxylic acid 2-bromo-benzylamide], for which the Ki in assay [1] was 0.0546 µM; at HA1 adenosine receptor, 0.27 µM. Further, in assay [1], the “selectivity (A1/A2a)” value is reported as 4.9.

As for `COc1ccc(CNC(=O)c2cc(N)n3nc(-c4ccco4)nc3c2)cc1` [Example 183, 5-Amino-2-furan-2-yl-[1,2,4]triazolo[1,5-a]pyridine-7-carboxylic acid 4-methoxy-benzylamide], in assay [1], the Ki was 0.0337 µM and the “selectivity (A1/A2a)” value is recorded as 9.0. The molecule also returned a Ki on HA1 adenosine receptor of 0.302 µM.

On to `CCCCNC(=O)c1cc(N)n2nc(-c3sccc3C)nc2c1` [Example 184, 5-Amino-2-(3-methyl-thiophen-2-yl)-[1,2,4]triazolo[1,5-a]pyridine-7-carboxylic acid butylamide], for which, in assay [1], the Ki amounted to 0.0695 µM and the “selectivity (A1/A2a)” value is 1.9. On HA1 adenosine receptor, this molecule had an inhibition constant Ki of 0.133 µM.

Take `CCN(CC)C(=O)c1cc(N)n2nc(-c3sccc3C)nc2c1` [Example 185, 5-Amino-2-(3-methyl-thiophen-2-yl)-[1,2,4]triazolo[1,5-a]pyridine-7-carboxylic acid diethylamide]: in assay [1], the Ki was 0.238 µM and the “selectivity (A1/A2a)” value was 6.0. This molecule had a Ki on HA1 adenosine receptor of 1.42 µM.

Regarding `Cc1ccsc1-c1nc2cc(C(=O)N(C(C)C)C(C)C)cc(N)n2n1` [Example 186, 5-Amino-2-(3-methyl-thiophen-2-yl)-[1,2,4]triazolo[1,5-a]pyridine-7-carboxylic acid diisopropylamide], the Ki in assay [1] amounted to 0.21 µM; on HA1 adenosine receptor it was 0.249 µM. For the same molecule, the “selectivity (A1/A2a)” value in assay [1] is 1.2.

For `Cc1ccsc1-c1nc2cc(C(=O)NC3CCc4ccccc43)cc(N)n2n1` (stereo not drawn) [Example 187, 5-Amino-2-(3-methyl-thiophen-2-yl)-[1,2,4]triazolo[1,5-a]pyridine-7-carboxylic acid indan-1-ylamide], the values for the inhibitory constant (Ki) (in assay [1]; on HA1 adenosine receptor) were 0.224 µM and 0.228 µM, respectively. The “selectivity (A1/A2a)” value in assay [1] was 1.0.

With `Cc1ccsc1-c1nc2cc(C(=O)N3CCCC3)cc(N)n2n1` [Example 188, [5-Amino-2-(3-methyl-thiophen-2-yl)-[1,2,4]triazolo[1,5-a]pyridin-7-yl]-pyrrolidin-1-yl-methanone], in assay [1], the inhibition constant Ki worked out at 0.226 µM and the “selectivity (A1/A2a)” value is listed as 3.1. At HA1 adenosine receptor, this molecule returned a Ki of 0.711 µM.

For the molecule `Cc1ccsc1-c1nc2cc(C(=O)N3CCCCC3)cc(N)n2n1` [Example 189, [5-Amino-2-(3-methyl-thiophen-2-yl)-[1,2,4]triazolo[1,5-a]pyridin-7-yl]-piperidin-1-yl-methanone], the Ki in assay [1] worked out at 0.268 µM; on HA1 adenosine receptor, 0.763 µM. Further, the “selectivity (A1/A2a)” value in assay [1] is 2.9.

For `Cc1ccsc1-c1nc2cc(C(=O)NC(C)c3ccccc3)cc(N)n2n1` (stereo not drawn) [Example 190, 5-Amino-2-(3-methyl-thiophen-2-yl)-[1,2,4]triazolo[1,5-a]pyridine-7-carboxylic acid (1-phenyl-ethyl)-amide], the Ki in assay [1] is 0.365 µM; on HA1 adenosine receptor it was 0.0473 µM. Moreover, the “selectivity (A1/A2a)” value in assay [1] was 0.1.

Turning to `Cc1ccsc1-c1nc2cc(C(=O)NCc3ccccc3Cl)cc(N)n2n1` [Example 191, 5-Amino-2-(3-methyl-thiophen-2-yl)-[1,2,4]triazolo[1,5-a]pyridine-7-carboxylic acid 2-chloro-benzylamide], in assay [1], the Ki is 0.108 µM and the “selectivity (A1/A2a)” value was 1.2. The molecule also showed a Ki on HA1 adenosine receptor of 0.131 µM.

Regarding `COc1ccccc1CNC(=O)c1cc(N)n2nc(-c3sccc3C)nc2c1` [Example 192, 5-Amino-2-(3-methyl-thiophen-2-yl)-[1,2,4]triazolo[1,5-a]pyridine-7-carboxylic acid 2-methoxy-benzylamide], in assay [1], the Ki was 0.129 µM and the “selectivity (A1/A2a)” value is on record as 0.9. Besides, at HA1 adenosine receptor, the Ki amounted to 0.112 µM.

For `CCCCNC(=O)c1cc(N)n2nc(-c3ccc(C)s3)nc2c1` [Example 193, 5-Amino-2-(5-methyl-thiophen-2-yl)-[1,2,4]triazolo[1,5-a]pyridine-7-carboxylic acid butylamide], in assay [1], the Ki stood at 0.0417 µM and the “selectivity (A1/A2a)” value was 1.8. This molecule also gave an inhibition constant (Ki) at HA1 adenosine receptor of 0.0748 µM.

On to `CCN(C(=O)c1cc(N)n2nc(-c3ccc(C)s3)nc2c1)C(C)C` [Example 194, 5-Amino-2-(5-methyl-thiophen-2-yl)-[1,2,4]triazolo[1,5-a]pyridine-7-carboxylic acid ethyl-isopropyl-amide], for which the Ki in assay [1] amounted to 0.0563 µM; at HA1 adenosine receptor, 0.246 µM. In addition, the “selectivity (A1/A2a)” value in assay [1] was 4.4.

Consider `Cc1ccc(-c2nc3cc(C(=O)NC4CCCCC4)cc(N)n3n2)s1` [Example 195, 5-Amino-2-(5-methyl-thiophen-2-yl)-[1,2,4]triazolo[1,5-a]pyridine-7-carboxylic acid cyclohexylamide], for which the inhibitory constant (Ki) in assay [1] is 0.109 µM; at HA1 adenosine receptor, 0.145 µM. Also, the “selectivity (A1/A2a)” value in assay [1] was 1.3.

As to `Cc1ccc(-c2nc3cc(C(=O)N4CCCC4)cc(N)n3n2)s1` [Example 196, [5-Amino-2-(5-methyl-thiophen-2-yl)-[1,2,4]triazolo[1,5-a]pyridin-7-yl]-pyrrolidin-1-yl-methanone], in assay [1], the Ki stood at 0.0522 µM and the “selectivity (A1/A2a)” value is on record as 8.3. On HA1 adenosine receptor, this molecule came in with a Ki of 0.432 µM.

What is called Ki is a dissociation constant, usually derived from enzyme kinetics or from competition with a known ligand.
